Tested on: gastric acid secretion
Assay: Lumen perfused stomach of the anaesthetized rat: inhibition of acid secretion evoked by histamine plus acetylcholine
Assay type: in vivo
Details: drug alone
Protocol: Experiments in lumen perfused stomach of the anaesthetized rat were performed, evoking acid secretion by histamin (0.5 mg/kg/h i.v.) and acetylcholine (0.5 mg/kg/h i.v.) given in combination. These two combined secretagogues evoked a response which was about 80% of the maximal effect achievable by maximally effective dose of either acetylcholine (8 mg/kg/h i.v.) or histamine (8 mg/kg/h i.v.) alone.
As soon as a steady level of acid output was reached, a combination of mifentidine/pirenzepine (1:10), or of DA-5047/pirenzepine (1:10) under the form of the compositions of the present invention, or mifentidine, DA-5047 and pirenzepine alone were administered intravenously. Each dose was administered to 8 animals.
The obtained data were submitted to linear regression analysis in order to calculate the dose inhibiting 50% (ED₅₀) the response of which is reported in the following table II: […]

| Compound | Percent inhibition (dose 20 µg/kg i.v.) [%] | Percent inhibition (dose 40 µg/kg i.v.) [%] | Percent inhibition (dose 80 µg/kg i.v.) [%] | Percent inhibition (dose 200 µg/kg i.v.) [%] | Percent inhibition (dose 400 µg/kg i.v.) [%] | Percent inhibition (dose 800 µg/kg i.v.) [%] |
| --- | --- | --- | --- | --- | --- | --- |
| Cc1nc(-c2ccc(N=CNC(C)C)cc2)c[nH]1 [DA-5047, N-isopropyl-Nʹ-[4-(2- -methyl-imidazol-4-yl)phenyl]-formamidine] | 21 | 34 | 52 |  |  |  |
| CC(C)NC=Nc1ccc(-c2c[nH]cn2)cc1 [Mifentidine, N-isopropyl-Nʹ-[4-(imidazol-4-yl)phenyl]-formamidines] | 20 | 36 | 58 |  |  |  |
| CN1CCN(CC(=O)N2c3ccccc3C(=O)Nc3cccnc32)CC1 [Pirenzepine, reference compound] |  |  |  | 28 | 46 | 62 |

Source: patent EP0279787A1, “Pharmaceutical compositions with synergistic antisecretory action for the healing of gastroduodenal ulcer” (ISTITUTO DE ANGELI S.p.A., priority 1987, dated 1988)
